The results in this text go back to patent US11040981B2, “Pyrrolotriazine compounds and methods of inhibiting TAM kinases” (Syros Pharmaceuticals, Inc., priority 2017, dated 2021).

Each structure is given as a SMILES string. pIC50: −log10 of the molar value.

For assay [1], the target named is T1, AXL (Homo sapiens, UniProt P30530).
T1 sequence (P30530 26-894): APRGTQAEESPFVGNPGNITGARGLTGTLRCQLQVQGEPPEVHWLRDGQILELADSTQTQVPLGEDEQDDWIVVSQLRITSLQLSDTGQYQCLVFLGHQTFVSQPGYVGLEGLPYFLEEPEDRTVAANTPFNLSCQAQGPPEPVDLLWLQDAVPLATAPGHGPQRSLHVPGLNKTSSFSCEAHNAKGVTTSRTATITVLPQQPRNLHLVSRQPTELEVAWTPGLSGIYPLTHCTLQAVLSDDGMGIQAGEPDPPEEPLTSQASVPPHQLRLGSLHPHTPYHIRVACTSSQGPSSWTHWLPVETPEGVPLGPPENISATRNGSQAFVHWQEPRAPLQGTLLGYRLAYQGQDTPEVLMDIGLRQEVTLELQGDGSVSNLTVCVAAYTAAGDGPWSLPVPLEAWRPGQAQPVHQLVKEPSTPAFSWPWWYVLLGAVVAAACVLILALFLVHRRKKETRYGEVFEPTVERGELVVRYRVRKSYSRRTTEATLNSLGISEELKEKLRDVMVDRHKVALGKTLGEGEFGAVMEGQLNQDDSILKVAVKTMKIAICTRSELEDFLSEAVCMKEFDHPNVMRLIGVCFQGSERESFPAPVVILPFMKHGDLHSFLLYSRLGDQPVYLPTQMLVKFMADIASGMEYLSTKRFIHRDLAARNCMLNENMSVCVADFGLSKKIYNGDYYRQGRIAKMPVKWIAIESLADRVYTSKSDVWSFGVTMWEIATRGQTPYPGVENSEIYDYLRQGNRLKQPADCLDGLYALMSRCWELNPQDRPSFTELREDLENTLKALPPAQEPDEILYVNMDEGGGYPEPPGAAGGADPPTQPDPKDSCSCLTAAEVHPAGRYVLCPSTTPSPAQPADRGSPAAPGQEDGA
In words: TR-FRET kinase activity assay, AXL. Type of assay: biochemical. As to conditions: ATP at Km, 60 minutes. A digest of the protocol: (§1)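 IC50 reflects the drop in TR-FRET between Eu anti-phosphotyrosine antibody and labelled peptide after a 60-minute room-temperature reaction. Buffer was 50 mM HEPES pH 7.5 with 10 mM MgCl2, 1 mM EGTA, 0.01% Brij 35 and 1 mM DTT, with ATP at Km per enzyme and EDTA quench.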

Assay [2] has as its target T2, MERTK (Homo sapiens, UniProt Q12866).
T2 sequence (Q12866 21-999): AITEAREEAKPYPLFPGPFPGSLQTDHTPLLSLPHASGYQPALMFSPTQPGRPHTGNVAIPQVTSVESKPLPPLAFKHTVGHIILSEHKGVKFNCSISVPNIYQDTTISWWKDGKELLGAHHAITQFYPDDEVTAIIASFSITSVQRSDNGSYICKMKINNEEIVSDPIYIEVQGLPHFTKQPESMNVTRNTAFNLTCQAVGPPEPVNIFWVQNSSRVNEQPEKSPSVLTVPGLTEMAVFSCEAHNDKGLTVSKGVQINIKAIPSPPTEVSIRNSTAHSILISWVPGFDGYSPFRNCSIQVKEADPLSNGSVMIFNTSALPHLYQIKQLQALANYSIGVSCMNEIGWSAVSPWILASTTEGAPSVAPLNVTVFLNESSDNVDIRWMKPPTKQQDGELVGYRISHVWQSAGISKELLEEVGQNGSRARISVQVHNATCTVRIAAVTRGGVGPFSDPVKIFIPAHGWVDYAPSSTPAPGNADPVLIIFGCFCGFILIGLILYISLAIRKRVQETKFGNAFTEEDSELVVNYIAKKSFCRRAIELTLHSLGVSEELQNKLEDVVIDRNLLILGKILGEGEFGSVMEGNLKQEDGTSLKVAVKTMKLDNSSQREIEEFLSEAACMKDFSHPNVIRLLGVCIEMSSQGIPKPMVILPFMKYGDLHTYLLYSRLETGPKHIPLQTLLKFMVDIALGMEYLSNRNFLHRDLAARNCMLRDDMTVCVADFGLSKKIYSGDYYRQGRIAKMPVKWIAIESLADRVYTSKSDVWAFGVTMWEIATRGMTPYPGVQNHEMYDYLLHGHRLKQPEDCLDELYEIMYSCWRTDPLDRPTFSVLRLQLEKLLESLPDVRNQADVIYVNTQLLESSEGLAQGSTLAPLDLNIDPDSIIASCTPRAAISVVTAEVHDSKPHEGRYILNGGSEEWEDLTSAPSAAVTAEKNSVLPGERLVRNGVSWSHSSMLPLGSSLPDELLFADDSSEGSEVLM
As to the kind of experiment: TR-FRET kinase activity assay, MERTK. As to conditions: for pIC50: TR-FRET activity assay, ATP at Km, 60 minutes, read-out: Mer IC50; for FLT3/Mer ratio (FLT3 IC50/Mer IC50): ratio of Mer to FLT3: FLT3 IC50/Mer IC50. Type of assay: biochemical. Summed up:
as §1
(In TR-FRET formats the signal depends on donor and acceptor labels being close together.)

Regarding `Cc1cc(-c2cc([C@H]3CC[C@H](O)CC3)n3nc(N[C@@H](C)C(F)F)ncc23)ccn1` [Compound 309], the pIC50 in assay [1] is ≥ 7.00. Also, in assay [2], the pIC50 is ≥ 7.00 and the “FLT3/Mer ratio (FLT3 IC50/Mer IC50)” value is listed as “+++ (“+++” represents a ratio of >100)”.
With `COCCOc1cc(-c2cc([C@H]3CC[C@H](O)CC3)n3nc(N[C@@H](C)COC)ncc23)ccn1` [Compound 345], in assay [1], the pIC50 was ≥ 7.00. In addition, in assay [2], the pIC50 was ≥ 7.00 and the “FLT3/Mer ratio (FLT3 IC50/Mer IC50)” value is “+++ (“+++” represents a ratio of >100)”.
`COC[C@H](C)Nc1ncc2c(-c3ccc(S(C)(=O)=O)nc3)cc([C@H]3CC[C@H](O)CC3)n2n1` [Compound 279]: the pIC50 in assay [1] is ≥ 7.00. In addition, in assay [2], the pIC50 is ≥ 7.00 and the “FLT3/Mer ratio (FLT3 IC50/Mer IC50)” value is on record as “+++ (“+++” represents a ratio of >100)”.
Take `COC[C@H](C)Nc1ncc2c(-c3ccc(CN4CCOCC4)cc3)cc([C@H]3CC[C@H](NC(C)=O)CC3)n2n1` [Compound 300, N-((trans)-4-(2-(((S)-1-methoxypropan-2-yl)amino)-5-(4-(morpholinomethyl)phenyl)pyrrolo[2,1-f][1,2,4]triazin-7-yl)cyclohexyl)acetamide]: in assay [1], the pIC50 is ≥ 7.00. Besides, in assay [2], the pIC50 was ≥ 7.00 and the “FLT3/Mer ratio (FLT3 IC50/Mer IC50)” value is “+++ (“+++” represents a ratio of >100)”.
With `CNS(=O)(=O)c1cncc(-c2cc([C@H]3CC[C@H](O)CC3)n3nc(N[C@@H](C)COC(F)F)ncc23)c1` [Compound 275], the pIC50 in assay [1] is ≥ 7.00. In addition, in assay [2], the pIC50 was ≥ 7.00 and the “FLT3/Mer ratio (FLT3 IC50/Mer IC50)” value was “+++ (“+++” represents a ratio of >100)”.
For the compound `C[C@@H](CC(F)(F)F)Nc1ncc2c(-c3cncc(C(=O)O)c3)cc([C@H]3CC[C@H](O)CC3)n2n1` [Compound 298], the negative logarithm of the IC50 (pIC50) in assay [1] and in assay [2] was ≥ 7.00 in each case. Further, in assay [2], the “FLT3/Mer ratio (FLT3 IC50/Mer IC50)” value was “+++ (“+++” represents a ratio of >100)”.
`COC[C@H](C)Nc1ncc2c(-c3cnn(Cc4cc(C)nn4C)c3)cc([C@H]3CC[C@H](O)CC3)n2n1` [Compound 333]: in assay [1], the pIC50 was ≥ 7.00. Moreover, in assay [2], the pIC50 was ≥ 7.00 and the “FLT3/Mer ratio (FLT3 IC50/Mer IC50)” value is given as “+++ (“+++” represents a ratio of >100)”.
As for `COC[C@H](C)Nc1ncc2c(-c3ccnc(NC(C)C)c3)cc([C@H]3CC[C@H](O)CC3)n2n1` [Compound 337], the pIC50 in assay [1] is ≥ 7.00. Also, in assay [2], the pIC50 was ≥ 7.00 and the “FLT3/Mer ratio (FLT3 IC50/Mer IC50)” value is given as “+++ (“+++” represents a ratio of >100)”.
For the compound `COC[C@H](C)Nc1ncc2c(-c3ccnc(OC4CCN(C)CC4)c3)cc([C@H]3CC[C@H](O)CC3)n2n1` [Compound 342], the pIC50 in assay [1] is ≥ 7.00. In assay [2], the pIC50 is ≥ 7.00 and the “FLT3/Mer ratio (FLT3 IC50/Mer IC50)” value is listed as “+++ (“+++” represents a ratio of >100)”.
As to `C[C@@H](CC(F)(F)F)Nc1ncc2c(-c3cnn([C@@H]4CCOC4)c3)cc([C@H]3CC[C@H](O)CC3)n2n1` [Compound 289], the pIC50 in assay [1] was ≥ 7.00. Besides, in assay [2], the pIC50 was ≥ 7.00; the “FLT3/Mer ratio (FLT3 IC50/Mer IC50)” value was “+ (“+” represents a ratio of >2.0 and <10)”.
As to `COC[C@H](C)Nc1ncc2c(-c3cnn(Cc4nnc(C)o4)c3)cc([C@H]3CC[C@H](O)CC3)n2n1` [Compound 277], the pIC50 in assay [1] was ≥ 7.00. In assay [2], the pIC50 was ≥ 7.00 and the “FLT3/Mer ratio (FLT3 IC50/Mer IC50)” value is on record as “+++ (“+++” represents a ratio of >100)”.
Consider `C[C@@H](CC(F)(F)F)Nc1ncc2c(-c3cnn([C@H]4CCOC4)c3)cc([C@H]3CC[C@H](O)CC3)n2n1` [Compound 290], for which the pIC50 in assay [1] is ≥ 7.00. Besides, in assay [2], the negative logarithm of the IC50 (pIC50) is ≥ 7.00; the “FLT3/Mer ratio (FLT3 IC50/Mer IC50)” value is “++ (“++” represents a ratio of between 10 and 100)”.
In the case of `COC[C@H](C)Nc1ncc2c(-c3ccnc(C)c3)cc(C3CCC4(CC3)NC(=O)NC4=O)n2n1` (mixture of isomers) [Compound 325, (S)-8-(2-((1-methoxypropan-2-yl)amino)-5-(2-methylpyridin-4-yl)pyrrolo[2,1-f][1,2,4]triazin-7-yl)-1,3-diazaspiro[4.5]decane-2,4-dione], the pIC50 in assay [1] is ≥ 7.00. Besides, in assay [2], the pIC50 was ≥ 7.00 and the “FLT3/Mer ratio (FLT3 IC50/Mer IC50)” value is given as “+++ (“+++” represents a ratio of >100)”.
For `CCCCC[C@H](C)Nc1ncc2c(C3=CC[C@@H](C(=O)N4CCOCC4)CC3)cc([C@H]3CC[C@H](O)CC3)n2n1` [Compound 113], the pIC50 in assay [1] and in assay [2] was ≥ 7.00 in each case. In addition, the “FLT3/Mer ratio (FLT3 IC50/Mer IC50)” value in assay [2] is “++ (“++” represents a ratio of between 10 and 100)”.
`COC[C@H](C)Nc1ncc2c(-c3cnn(C(C)(C)C(=O)N4CC5(COC5)C4)c3)cc([C@H]3CC[C@H](O)CC3)n2n1` [Compound 326]: the pIC50 in assay [1] and in assay [2] was ≥ 7.00 in each case. Also, the “FLT3/Mer ratio (FLT3 IC50/Mer IC50)” value in assay [2] is on record as “+++ (“+++” represents a ratio of >100)”.
On to `COC[C@H](C)Nc1ncc2c(-c3cnn(CC4CNC(=O)C4)c3)cc([C@H]3CC[C@H](O)CC3)n2n1` (stereo partly drawn) [Compound 303], for which the pIC50 in assay [1] and in assay [2] was ≥ 7.00 throughout. In addition, in assay [2], the “FLT3/Mer ratio (FLT3 IC50/Mer IC50)” value was “+++ (“+++” represents a ratio of >100)”.
For `CCCCC[C@H](C)Nc1ncc2c(N3CCC(N(C)C)CC3)cc(C3CCC(O)CC3)n2n1.Cl` (stereo partly drawn) [Compound 115, 4-[5-[4-(dimethylamino)-1-piperidyl]-2-[[(1S)-1-methylhexyl]amino]pyrrolo[2,1-f][1,2,4]triazin-7-yl]cyclohexanol hydrochloride], the negative-log IC50 (pIC50) in assay [1] is 6.00 to 7.00; in assay [2], ≥ 7.00. In addition, the “FLT3/Mer ratio (FLT3 IC50/Mer IC50)” value in assay [2] was “++ (“++” represents a ratio of between 10 and 100)”.
In the case of `Cc1ccc(-c2cc([C@H]3CC[C@H](O)CC3)n3nc(N[C@@H](C)COC(F)F)ncc23)cn1` [Compound 321], the pIC50 in assay [1] and in assay [2] was ≥ 7.00 each time. The “FLT3/Mer ratio (FLT3 IC50/Mer IC50)” value in assay [2] is “+++ (“+++” represents a ratio of >100)”.
On to `COC[C@H](C)Nc1ncc2c(-c3cnn(C(C)(C)C(=O)N4C[C@H]5CC[C@@H](C4)O5)c3)cc([C@H]3CC[C@H](O)CC3)n2n1` [Compound 327], for which the pIC50 in assay [1] was ≥ 7.00. Besides, in assay [2], the pIC50 was ≥ 7.00 and the “FLT3/Mer ratio (FLT3 IC50/Mer IC50)” value was “+++ (“+++” represents a ratio of >100)”.
With `COC[C@H](C)Nc1ncc2c(-c3cnn(C(C)(C)C(=O)N4CCOCC4)c3)cc([C@H]3CC[C@H](O)CC3)n2n1` [Compound 282], the pIC50 in assay [1] was ≥ 7.00. Also, in assay [2], the pIC50 was ≥ 7.00 and the “FLT3/Mer ratio (FLT3 IC50/Mer IC50)” value is listed as “+++ (“+++” represents a ratio of >100)”.
Consider `COC[C@H](C)Nc1ncc2c(-c3ccnc(OC4CCCN(C)C4)c3)cc([C@H]3CC[C@H](O)CC3)n2n1` (stereo partly drawn) [Compound 341], for which the negative-log IC50 (pIC50) in assay [1] and in assay [2] was ≥ 7.00 throughout. Also, the “FLT3/Mer ratio (FLT3 IC50/Mer IC50)” value in assay [2] was “+++ (“+++” represents a ratio of >100)”.
Regarding `COCCn1cc(-c2cc([C@H]3CC[C@H](O)CC3)n3nc(N[C@@H](C)COC(F)F)ncc23)cn1` [Compound 274], in assay [1], the pIC50 was ≥ 7.00. In assay [2], the pIC50 was ≥ 7.00 and the “FLT3/Mer ratio (FLT3 IC50/Mer IC50)” value is on record as “+++ (“+++” represents a ratio of >100)”.

One may read the pIC50 as −log10 of the IC50, conventionally taken in molar units.
